Experimental data published in publication PMC10660337, “Mutate and Conjugate: A Method to Enable Rapid In-Cell Target Validation” (ACS Chemical Biology, 2023).
Values joined by “and” are separate entries in the source; they are usually repeats but may differ in a detail not shown here. Identical values can stand only once.

Experiments:
BRD4(1)^L94C [1] = biological target: T1, BRD4(1)^L94C (Homo sapiens, UniProt O60885, L94C); experiment: Protein LCMS labeling assay 1; assay type: binding
T1 construct: Characterization of His6-BRD4(1)L94C; made in house; host or cells: E. coli BL21 (DE3)
Protocol: The resulting library of 22 fragments was screened for BRD4(1)^L94C binding at a concentration of 50 μM using a protein LCMS assay (referred to as “labeling assay 1”). […] To assess the selectivity of the fragments for the labeling of C94, hits were also screened against BRD4(1)^WT under the same conditions. […] The acrylamide-based fragment, 12, labeled 98% of BRD4(1)^L94C after 4 h. While 95% of the protein was labeled once, 3% of the protein was labeled twice (Figure 5D). […] Fragment 14, designed by appending a β-dimethylaminomethyl acrylamide to the structure of 12, led to 74% of singly labeled BRD4(1)^L94C after 4 h with no labeling of BRD4(1)^WT observed (Table 1 and Figure 5E). […] However, only 9.9% of labeled BRD4(1)^L94C was observed, substantially lower than the 56% labeling observed for the corresponding 3-methyl regioisomer 10 (Table 1). […]
Assays were performed in 1.5 mL Eppendorf tubes at 37 °C and gently shaken, unless otherwise stated.
Experiments were performed in a protein LCMS assay buffer, with 10 µM protein, and 50 µM of the desired compound with a final DMSO concentration of 0.5% (Table S16). Time points were taken at 0, 1 and 4 h, unless otherwise stated, where a 20 µL sample of the reaction mix was taken, diluted with 100 µL Milli-Q water, and flash frozen. Samples were thawed immediately prior to LCMS analysis on a Waters Xevo G2-S system (Waters) fitted with a ProSwift™ RP-2H PSDVB Reversed Phase HPLC Column (Thermofisher). Data was analysed and processed using MassLynx. The total ion chromatograms (TIC) were extracted (region containing protein) and the summed scans were deconvoluted (using MaxEnt). Covalent labeling was calculated using intensities of the unlabeled and labeled protein (Equation 1). Figures were made using GraphPad Prism 7.0.
Table S16. Buffer composition for protein LCMS.
Buffer Reagent Composition Amount per 1 L
Protein LCMS Assay Buffer HEPES 25 mM 6.0 g
Protein Labelling = Intensity of Labelled Peak × 100

BRD4(1)^L94C [2] = biological target: T1, BRD4(1)^L94C; experiment: Fluorescent labeling of purified protein (CuAAC with TAMRA-PEG3-azide, in-gel fluorescence); assay type: binding; details: 50 μM probe, 10 μM protein, 4 h, 37 °C, then CuAAC 1 h
Protocol: When 28, 29, 30, and 42 were incubated with either purified BRD4(1)^L94C or BRD4(1)^WT and subjected to a copper(I)-catalyzed alkyne–azide click reaction (CuAAC) reaction with the fluorescent TAMRA-PEG3-azide dye, all clickable probes labeled the mutant protein and could be visualized using fluorescence imaging of a gel (Figure 6).
Figure 6 Clickable probes 28, 29, 30, and 42 covalently label BRD4(1)^L94C and undergo a subsequent CuAAC reaction with TAMRA-PEG3 azide to fluorescently label the protein, as shown by in-gel fluorescence imaging. Compounds 28, 29, 30, 41, and 42 (50 μM) were incubated with purified BRD4(1)^L94C or BRD4(1)^WT (10 μM) for 4 h at 37 °C, followed by CuAAC reaction with TAMRA-PEG3 azide for 1 h and separation of components by SDS-PAGE. For all compounds other than 30, only labeling of BRD4(1)^L94C was observed. […]
Fluorescent labeling of purified proteins
Assays were performed in 1.5 mL Eppendorf tubes at 37 °C, and gently shaken, unless otherwise stated.
The desired click probe (50 µM) was incubated with protein (10 µM) in protein LCMS buffer for 4 h, after which TAMRA-PEG3-Azide (200 µM), TCEP·HCl (1 mM), TBTA (100 µM), and CuSO4 (1 mM) were added and incubated for a further 1 h at room temperature in the dark. A 25 µL sample of the […]
(§1) reaction mix was taken and 8 µL of Lamelli buffer added, and the samples denatured by heating at 95 °C for 10 min. Samples were separated by gel electrophoresis on NuPAGE™ 4–12%, Bis-Tris precast polyacrylamide gels (Thermofisher). Following electrophoresis, gels were stained for 15 min with InstantBlueTM Coomasie® stain (Abcam), destained, and imaged using Bio-rad molecular imager.
Bio-rad Image Lab 6.1 was used to process the data. […]
InstantBlueTM Coomasie® stain (Abcam), destained, and imaged using Bio-rad molecular imager. […]
(§2) MEM media. Cells were then harvested and lysed using the previously described protocol above. […]

[3] = tested on: T2, BRD4(1)^L94C transiently expressed in HEK293T cells; experiment: In-cell labeling by clickable probes, in-gel fluorescence; assay type: cell-based, human
T2 construct: the L94C mutation in the first bromodomain of BRD4 [BRD4(1)]; StrepII; expressed in transfected cells; host or cells: HEK293T
Protocol: To evaluate proteome-wide selectivity of the clickable probes, HEK293T cells transiently expressing BRD4(1)^L94C or BRD4(1)^WT were incubated with 10 μM of probes 28–30 and 42 for 1 h before the cells were lysed and the CuAAC reaction with TAMRA-PEG3-azide was conducted (Figure 7A). […]
as §1
Bio-rad Image Lab 6.1 was used to process the data.
In-cell target engagement
In-cell labeling by clickable probes
Transfected HEK293T cells at ~90% confluency were incubated for 1 h with a DMSO control (0.5% DMSO final concentration) or a click probe (10 µM, 0.5% DMSO final concentration) diluted in Opti- […]
Cells were then harvested and lysed using the previously described protocol above. The resulting cell lysates were diluted to 2 mg/mL using the previously described protocol above.
Cell lysates (50 µL) were then incubated with TAMRA-PEG3-Azide (200 µM), TCEP·HCl (2 mM), TBTA (200 µM), and CuSO4 (2 mM), for 1 h at rt in the dark. Samples were then prepared and separated by gel electrophoresis using the previously described protocol above.
Gels were imaged for fluorescence using Bio-rad molecular imager and then stained for 15 min with InstantBlueTM Coomasie® stain (Abcam), destained, and imaged using Bio-rad molecular imager.
Typically, the very bottom of the gel was removed prior to imaging due to residual, unreacted, TAMRA-PEG3-Azide, which would cause oversaturation and poor image quality. […]
as §2

[4] = 50 μM compound, 10 µM protein, 37 °C, mean of three ± s.e.m., ND = not detectable

SMILES	Labeled Protein (%) L94C 1 h (BRD4(1)^L94C [1]; [4])	Labeled Protein (%) L94C 4 h (BRD4(1)^L94C [1]; 50 μM compound, 10 µM protein, 37 °C, 4 h, mean of three ± s.e.m., ND = not detectable)	Labeling of purified BRD4(1)^L94C, in-gel fluorescence (BRD4(1)^L94C [2])	Dose dependence of in-cell BRD4(1)^L94C labeling ([3]; 1 to 10 μM)	Time dependence of in-cell BRD4(1)^L94C labeling ([3]; time course 0.5–4 h)	Second labeling event, share of total labeled protein (BRD4(1)^L94C [1]; labeling assay 1, 50 μM)	In-cell BRD4(1)^L94C engagement (fluorescent band ∼49 kDa) ([3]; 10 μM probe, 1 h)
C#CCOc1cc(NC(=O)C=C)ccc1N1CCCC1=O [Compound 42]	37% and 37 ± 1.2%	82% and 82 ± 1.1%	high levels	dose dependent	time-dependent	–	–
C#CCOc1ccc(-c2c(C)noc2NC(=O)C=C)cc1 [Compound 30]	96 ± 0.2%	–	high levels	–	–	3%	highest level of BRD4(1)^L94C engagement
